Experimental data: US20040171089A1, “High-throughput screening assay for identifying substances capable of modulating cell survival and/or proliferation” (priority 2001, published 2004)
“Also recorded” adds a separate entry of the source.

Tests used:
[1] = tested on: MDA MB 468 cells; test: Fura-2 calcium imaging, MDA MB 468 cells; type: cell-based, human; conditions: for effect on cytosolic calcium levels (in words): MDA MB 468 cells, FIG. 2a: IPAG 1-10 μM, rimcazole 10-30 μM, (+)-SKF 10,047 10 μM, (+)-pentazocine 10-30 μM, ibogaine 10-50 μM; for % increase of cytosolic calcium (peak 340/380 nm fura-2 ratio): MDA 468 cells
Experimental: Human mammary carcinoma (MDA MB 468) cells were obtained from ATCC, Manassas, Va., USA; catalogue number HTB-132; cells were grown in accordance with the manufacturer's instructions.
(§1) For calcium imaging experiments cells were plated onto poly-L-lysine coated coverslips (13 mm). Single cell imaging was performed utilizing a MiraCal Imaging facility (Life Science Resources, Cambridge, U.K.) with a Nikon Diaphot-TMD inverted epifluorescence microscope equipped with a ×40 oil immersion objective and Sutter filter wheel. The imager was equipped with a Lambert intensifier 1187 (Life Sciences Resources) providing a ×30 enhancement of the fluorescent signal, thus limiting phototoxicity.
(§2) Fura-2 acetoxymethyl ester (fura-2 AM) incubations with the cells were performed at 37° C. in a medium containing (in mM): 120 NaCl, 3.5 KCl, 0.4 KH2PO4, 5 NaHCO3, 1.2 Na2SO4, 15 glucose, 1.2 MgCl2, 1 CaCl2, and 20 TES [N-tris(hydroxymethyl) methyl-2-aminoethane sulphonic acid] pH adjusted to 7.4 with NaOH. Typically cells were incubated in 3 μM fura-2 AM for 25 min., which permitted sufficient accumulation of free fura-2 in the cell cytoplasm. Cells were then illuminated alternately at 340 and 380 nm with the emitted 505 nm light being detected by a photomultiplier. Free fura emits maximally when excited at 380 nm, whilst the calcium bound fura has a maximal emission when excited at 340 nm. Thus the ratio of emission when alternately excited at 340/380 nm is a measure of the calcium concentration in equilibrium with the chelator. Changes of intracellular calcium were quantified as the percentage increase of the fluorescent ratio (determined at ˜505 nm) obtained by exciting the test cells alternatively at 340 nm (optimal for calcium bound dye) and 380 nm.

[2] = tested on: phospholipase C; test: GFP-PH PLCdelta 1 relocalisation (PLC activation) in MDA MB 468 cells; type: cell-based, human; conditions: for relocalisation of GFP-PH PLC delta 1 from membrane to cytosol: 100 μM, approximately 10 minutes, DMEM with 10% fetal bovine serum
From the text: The inventors introduced a recombinant plasmid vector encoding a hybrid protein comprised of the pleckstrin homology (PH) domain of phospholipase C (PLC) delta 1 fused green fluorescent protein (GFP) (GFP-PH PLCdelta 1) into MDA MB 468 mammary carcinoma cells. A standard transfection method (Fugene-6—Roche) was used. […] Cells were maintained in DMEM with 10% fetal bovine serum at 37 deg C. in 5% CO2 before and during exposure to sigma ligands which were present at a range of concentrations. Effects on the GFP-PH PLCdelta 1 protein were studied in two ways: by time lapse microscopy (using a Leica inverted fluorescence microscope and a Hammamatsu Orca charge-coupled device camera, linked to an Improvision Open Lab image processing workstation). This enabled the time course of effects to be determined. […] Control cell populations received drug vehicle alone and were analysed at the same time points.
GFP-PH PLC delta 1—expressing MDA MB 468 cells were exposed to sigma antagonists in 1 mM and 0 mM (nominally calcium-free) buffer (as used for the calcium imaging experiments, described above) and monitored by time lapse imaging as above.

[3] = tested on: human primary microvascular endothelial cells; test: Fura-2 calcium imaging, microvascular endothelial cells; type: cell-based; conditions: microvascular endothelial cells; FIG. 2b: IPAG 10 μM, rimcazole 10-30 μM, (+)-pentazocine 10-30 μM
Experimental: Human adult dermal microvascular endothelial cells (catalogue number CC-2543; cells had been characterised by tests for cell type markers: positive for acetylated LDL uptake, positive for factor VIII related antigen, negative for alpha smooth muscle actin)
as §1, §2

[4] = tested on: microvascular endothelial cells; conditions: equimolar, 10 micromolar, GB0007842.8, WO 0174359; cited from earlier work
[5] = tested on: phospholipase C; test: Quantitative HPLC assay of inositol phosphates (IP3 levels) in MDA MB 468 cells; type: cell-based, human; conditions: [3H] inositol labelled cells
From the text: The PH domain of PLC delta 1 has a higher affinity for the phosphoinositide IP3 compared to PIP2. IP3 is produced from PIP2 in response to activation of PLC. Since PIP2 is membrane-bound whereas IP3 is cytosolic, the activation of PLC can be visualised in living cells by the relocalisation of GFP-PH PLC delta 1 from membrane to cytosol. A proviso to this interpretation is that, in conditions where PIP2 levels decline relative to IP3, the net effect would be relocalisation of GFP-PH PLC delta 1 from membrane to cytosol. Thus, to exclude this possibility, quantitative phospholipid assays were performed. (In this analysis, cells were labelled with [^3H] inositol in inositol-free DMEM (In Vitrogen—Gibco) with dialysed FBS for 48 hours before exposure to sigma ligands. Cells were then lysed and subjected to quantitative HPLC assay). These assays confirmed that IP3 levels had risen in cells exposed to sigma antagonists (IP3 levels had risen to 240% and 166% of the level prior to provision of the test substance in response to IPAG and rimcazole respectively) but had not risen in cells exposed to sigma-1 or sigma-2 agonists. This confirmed activation of PLC by sigma antagonists.

[6] = tested on: MDA MB 468 cells; test: MTS cell viability/proliferation assay, MDA MB 468 cells; type: cell-based, human; conditions: MDA 468 cells; 1-10 μM
Experimental: (§3) This was carried out using an MTS assay (reagents from Promega Corporation, Madison Wis., USA) which is a modification of the MTT assay (as described in Jacobson et al, 1994 EMBO J Vol 13 pp1899-1910). The assay depends on conversion of the MTS tetrazolium compound to a coloured formazan product in metabolically active cells; it is therefore an assay of viable cell number. A decline in values implies cell killing as long as cell disappearance by apoptosis in untreated cell populations is absent or negligible (as with most healthy primary cell populations).
(§4) Cells were seeded in the range 1.5×10^5-1.8×10^5 cells per ml of culture medium in 96 well microtitre plates and allowed to attach in a humidifed atmosphere of 5% CO2 in air at 37 deg C. Drugs were added 18-24 hours later and cell viability/proliferation measured at time intervals up to 48-72 hours post-drug addition when the experiment was terminated. Mean (±SE) values at each time point were obtained from wells in triplicate.
(§5) Cell viability was measured as follows: 20 μl of MTS solution (Promega) was added to wells and incubated at 37 deg C. for 3 hours during which time a coloured formazan product is generated in viable cells. […] Viable cell number was then measured by reading absorbance at 490 nm in a Dynex microtitre plate reader. […]

[7] = tested on: mammary epithelial cells; test: MTS cell viability/proliferation assay, mammary epithelial cells; type: cell-based, human; conditions: 1-10 μM
Experimental: Human mammary epithelial cells (catalogue number CC-2551; stain positive for cytokeratins 14, 18 and 19)
as §3
as §4, with “Mean (±SE) values at each time point were obtained from wells in triplicate.” left out
as §5

[8] = tested on: sigma-1 compared to sigma-2 sites; conditions: Abou-Gharbia et al 1993; cited from earlier work
[9] = tested on: human prostate epithelial cells; test: MTS cell viability/proliferation assay, prostate epithelial cells; type: cell-based; conditions: 1-10 μM
Experimental: as §3, §4, §5

[10] = tested on: microvascular endothelial cells; test: MTS cell viability/proliferation assay, microvascular endothelial cells; type: cell-based, human; conditions: 1-10 μM
Experimental: as §3, §4, §5

[11] = tested on: adult dermal fibroblasts; test: MTS cell viability/proliferation assay, adult dermal fibroblasts; type: cell-based, human; conditions: 1-10 μM
Experimental: as §3, §4, §5

## ibogaine
[1]
  effect on cytosolic calcium levels (in words): little or no rise; also recorded: fails to induce a significant rise
[2]
  relocalisation of GFP-PH PLC delta 1 from membrane to cytosol: failed to produce this effect

## CC(C)=CCN1CCC2(C)c3cc(O)ccc3CC1C2C (single isomer, unassigned; (+)) [(+)-pentazocine]
[3]
  increase in cytosolic calcium: little or no effect
[1]; 10 μM
  % increase of cytosolic calcium (peak 340/380 nm fura-2 ratio): 5±7%
[1]; 30 μM
  % increase of cytosolic calcium (peak 340/380 nm fura-2 ratio): −7±6%
[1]
  effect on cytosolic calcium levels (in words): little or no rise; also recorded: little or no effect
[4]
  prevention of rimcazole- and IPAG-induced death and cytostasis: completely prevented

## C[C@@H]1CN(CCCn2c3ccccc3c3ccccc32)C[C@H](C)N1 [rimcazole]
[5]
  IP3 levels, % of the level prior to provision of the test substance: 166%
[1]; 30 μM
  % increase of cytosolic calcium (peak 340/380 nm fura-2 ratio): 92±8%
[1]
  effect on cytosolic calcium levels (in words): increase cytosolic calcium levels
[6]
  Cytotoxicity: cytotoxic
[7]
  Cytotoxicity: not cytotoxic
[8]
  selectivity for sigma-1 compared to sigma-2 sites: approximately 5 fold
[9]
  Cytotoxicity: not cytotoxic
[10]
  Cytotoxicity: cytotoxic
[11]
  Cytotoxicity: not cytotoxic
[2]
  relocalisation of GFP-PH PLC delta 1 from membrane to cytosol: pronounced relocalisation
[2]; nominally calcium-free buffer (0 mM calcium)
  localisation of GFP-PH PLC delta 1: remained membrane-localised

## (+)-SKF 10,047
[1]
  effect on cytosolic calcium levels (in words): little or no effect
[1]; listed as (+)-SKF-10,047
  effect on cytosolic calcium levels (in words): little or no rise
